Measurements as given in patent US20050256204A1, “Topical phenyl-epinephrine Rosacea treatment” (priority 2004, published 2005).

Key:
[1] = system: skin reddening symptoms of Rosacea and other facial skin disorders; conditions: topical applications in a cosmetic lotion, applied as needed
From the text: For example, using step 106 alone. Further embodiments of the present invention therefore comprise phenyl-epinephrine cosmetic skin lotion. The skin lotion is applied as needed by the user, e.g., just before going out in public.

[2] = system: non-mucous membrane skin tissues; conditions: topical application; phenyl-epinephrine strength of at least one percent; water-based gel
From the text: The topical applications of phenyl-epinephrine used in steps 104, 106, and 108, can include the use of a skin lotion comprising phenyl-epinephrine in solution with a strength sufficient for transdermal absorption by non-mucous membrane skin tissues. Such phenyl-epinephrine is the only active ingredient, and it is preferably compounded with a water-based gel. Such gel provides for holding the phenyl-epinephrine in contact with a user's skin for a minimal residence time sufficient to induce vasoconstriction.

Q: How did the “relief of skin reddening symptoms” value [1] turn out when `CNC[C@H](O)c1cccc(O)c1` [phenyl-epinephrine] was run?
A: temporary relief of skin reddening symptoms

Q: And the vasoconstriction [2]?
A: produced the desired vasoconstriction
